Laboratory results: paper PMC8111447 (Frontiers in Pharmacology, 2021)
Where two headings read alike, the source gives them in different places. Blank lines part the entries; values can stand above or below the compound they belong to.

What was measured:
A431 (EGFR^WT) = assay: Cell proliferation assay (CTG, 72 h); format: cell-based; details: Homo sapiens, A-431, A431 cells, mean ± SD, n = 3
Description: (§1) Human lung cancer cell lines (NCI-H1975, H3255 and A431) were obtained from the American Type Culture Collection (ATCC), while PC-9 cell line was supplied by the European Collection of Authenticated Cell Cultures (ECACC). For in vivo implantation, NCI-H1975, H3255 and PC-9 cells were cultured in RPMI1640 (Invitrogen) supplemented with 10% v/v fetal calf serum (Sigma-Aldrich) and 2 mmol/L L-glutamine (Invitrogen). A431 cells were cultured in DMEM (Invitrogen) supplemented with 10% v/v fetal calf serum and 2 mmol/L v/v L-glutamine. All cell lines were then cultured in a humidified incubator with 5% CO2 at 37°C.
(§2) Test compounds were dissolved in DMSO as a 10 mmol/L stock solution. The initial concentration of compounds were 10 μmol/L and the 3-fold dilution was nine times. […] Plate was shaked for 2 min and the mixture was incubated at room temperature for 10 min.
(§3) The half-maximal inhibition concentration (IC50) values were processed by GraphPad Prism7 (GraphPad Software; La Jolla, CA).

[1] = test system: NCI-H1975 (EGFR^L858R/T790M); assay: Cell proliferation assay (CTG, 72 h); format: cell-based; details: Homo sapiens, NCI-H1975 cells, mean ± SD, n = 3
Description: as §1, §2, §3

H3255 (EGFR^L858R) = assay: Cell proliferation assay (CTG, 72 h); format: cell-based, human; details: for IC50: Homo sapiens, NCI-H3255, H3255 cells, 72 h, mean ± SD, n = 3
Description: as §1, §2, §3

PC-9 (EGFR^d746–750) = assay: Cell proliferation assay (CTG, 72 h); format: cell-based, human; details: for IC50: Homo sapiens, PC-9 cells, 72 h, mean ± SD, n = 3
Description: as §1, §2, §3

[2] = test system: EGFR phosphorylation (pY1068) in A431 cells; assay: Phosphorylation of EGFR assay, time course; format: cell-based, human; details: 0.1 μmol/L, 1-10 h, EGF stimulated
Description: (§4) Cells (NCI-H1975/PC-9/[…]) were seeded into a 384-well plate (10,000 cells/well), grown for 24 h, and then treated with different test compounds (0.1 μmol/L) for 1, 2, 4, 6, 8 and 10 h. A431 cells were stimulated with 100 ng/ml EGF after incubation for 10 min. Cells were washed with ice-cold HBSS before extraction with 25 μl cell lysis buffer. Phosphorylation of EGFR was measured using a sandwich ELISA assay with phospho-specific EGFR (pY1068) antibodies [AlphaLISA SureFire p-EGF Receptor (Tyr1068) Assay Kit, PerkinElmer].

[3] = test system: EGFR phosphorylation (pY1068) in NCI-H1975 cells; assay: Phosphorylation of EGFR assay, time course; format: cell-based, human; details: 0.1 μmol/L, 1-10 h
Description: as §4

[4] = test system: EGFR phosphorylation (pY1068) in PC-9 cells; assay: Phosphorylation of EGFR assay, time course; format: cell-based, human; details: 0.1 μmol/L, 1-10 h
Description: as §4

[5] = test system: NCI-H1975 (L858R/T790M) xenograft; assay: NCI-H1975 xenograft model; format: in vivo, Nu/Nu nude mice; details: for tumor growth inhibition rate: after 14 days of dosing, vs vehicle
Description: (§5) The female Nu/Nu nude mice were purchased from Beijing Vital River Laboratories. […] Nu/Nu nude mice were purchased from the Beijing Vital River Laboratories of China. The 6–8 weeks old female mice were inoculated subcutaneously at the right flank with approximately 3–5 × 10^6 tumor cells in 0.2 ml of medium. The treatments were started when the tumor size reached approximately 200 mm^3. […] All mice were orally administrated once daily for consecutive 14 days. Mouse body weight, tumor weight and tumor volume (TV) were measured twice per week. TV was then used for the calculation of tumor inhibitory rate and tumor regression rate.

[6] = test system: PC-9 (exon 19 del) xenograft; assay: PC-9 xenograft model; format: in vivo, Nu/Nu nude mice; details: oral, 2.5 to 15 mg/kg
Description: as §5

[7] = test system: A431 (wild-type EGFR) tumor xenografts; assay: A431 xenograft model; format: in vivo, Nu/Nu nude mice; details: 5 mg/kg/day
Description: as §5

[8] = test system: phosphorylation of EGFR and ERK; assay: Immunohistochemistry of tumor tissue from NCI-H1975 xenograft model; format: in vivo, Nu/Nu nude mice; details: 6–24 h
Description: Paraffin-embedded tumor tissues from each group were sectioned, mounted on positively charged glass slides, baked, deparaffinized, and rehydrated. Antigen retrieval was performed by heating slides in EDTA (pH 8.0) for 10 min. Sections were incubated in p-EGF Receptor ([…]) Rabbit antibody and Phospho-p44/42 MAPK (Erk1/2) (Thr202/Tyr204) (20G11) Rabbit antibody overnight at 4°C and then incubated with Anti-Rabbit IgG (H + L) at 37°C for 45 min. The sections were then stained with diaminobenzidine (DAB) and visualized.

[9] = Plasma pharmacokinetics in NCI-H1975 tumor-bearing mice; format: in vivo; details: for AUC(0-t): po, read-out: AUC0–t in plasma
Description: (§6) NCI-H1975 tumor-bearing mice with tumor burden of approximately 200 mm^3 were used in the pharmacokinetics and pharmacodynamics study. […] Blood samples were collected at 0 (pre-dose), 10, 30 min, 1, 2, 4, 8, and 24 h post-dose.
(§7) Ionization mode. Drug to internal standard peak area ratios for the standards were used to create a calibration curve using 1/×^2 weighted least-squares regression analysis. Concentrations of each analyte were quantified by comparing the ratios for each in-trial sample with those in the relevant calibration curve.

[10] = Tissue distribution in NCI-H1975 tumor-bearing mice; format: in vivo
Description: as §6, §7

[11] = Metabolite profiling in liver microsomes; format: in vitro ADME; details: incubation 60 min at 37°C; mouse, rat, dog, monkey and human liver microsomes
Description: Metabolite profiling was conducted in mouse, rat, dog, monkey, and human liver microsomes in vitro as well as in rat plasma, feces, and urine samples in vivo (From other experiments). […] All samples were analyzed by the LC/MS/MS (AB Sciex, API 5500 Qtrap) system. The structures of major metabolites were elucidated based on EPI spectra and further verified using authentic standards. The main metabolite Imp3 was quantified in multiple reaction monitoring mode in rat, dog and human clinical samples.

IC50 (A431 (EGFR^WT)): 779 ± 135 nM
IC50 [1]: 3.93 ± 1.12 nM
IC50 (H3255 (EGFR^L858R)): 9.39 ± 0.88 nM
IC50 (PC-9 (EGFR^d746–750)): 7.63 ± 0.18 nM
AUC(0-t) ([9]; Nu/Nu nude, mouse, plasma, 2.5 mg/kg, 2.5 mg/kg oral daily, Day 14): 272 ng·h/mL
AUC(0-t) ([9]; Nu/Nu nude, mouse, plasma, 2.5 mg/kg, 2.5 mg/kg oral, Day 1): 118 ng·h/mL
AUC(0-t) ([9]; Nu/Nu nude, mouse, plasma, 5 mg/kg, 5 mg/kg oral daily, Day 14): 308 ng·h/mL
AUC(0-t) ([9]; Nu/Nu nude, mouse, plasma, 5 mg/kg, 5 mg/kg oral, Day 1): 300 ng·h/mL
AUC(0-t) ([9]; Nu/Nu nude, mouse, plasma, 15 mg/kg, 15 mg/kg oral daily, Day 14): 993 ng·h/mL
AUC(0-t) ([9]; Nu/Nu nude, mouse, plasma, 15 mg/kg, 15 mg/kg oral, Day 1): 931 ng·h/mL
Tmax ([9]; Nu/Nu nude, mouse, plasma, oral 2.5, 5 and 15 mg/kg): 1.5 to 2 h
accumulation between Days 1–14 ([9]; oral daily dosing for 14 days): no significant accumulation
blood-brain barrier penetration ([10]; pharmacokinetic experiments): could penetrate the blood-brain barrier
number of metabolites detected [11]: 27
SMILES: C=CC(=O)Nc1cc(Nc2nccc(-c3c4n(c5ccccc35)CCCC4)n2)c(OC)cc1N(C)CCN(C)C [SH-1028]
fold more sensitive than the inhibition of wild-type EGFR in A431 cells (H3255 (EGFR^L858R); H3255 vs A431, proliferation IC50): ~83 fold
fold more sensitive than the inhibition of wild-type EGFR in A431 cells (PC-9 (EGFR^d746–750); PC-9 vs A431, proliferation IC50): ~102 fold
inhibitory effect on EGFR phosphorylation [2]: weak inhibitory effect
inhibitory effect on EGFR phosphorylation [3]: stronger inhibitory effects on EGFR phosphorylation compared to osimertinib
inhibitory effect on EGFR phosphorylation [4]: stronger than that of osimertinib
tumor growth inhibition rate ([5]; 2.5 mg/kg oral once daily): 72.6%
tumor growth inhibition rate ([5]; 5 mg/kg oral once daily): 91.8%
tumor growth inhibition rate ([5]; 15 mg/kg oral once daily): 98.8%
body weight ([5]; 2.5 to 15 mg/kg oral once daily, 14 days): no TKI-induced weight loss
tumor growth [6]: significant inhibition of tumor cell growth
tumor growth [7]: moderate tumor growth inhibition
phosphorylation levels of EGFR and ERK in tumor tissues [8]: continuously inhibit the phosphorylation of EGFR and ERK
distribution into tissues (tumor tissues, adjacent lung tissues and brain) ([10]; 15 mg/kg oral, within 2 h, Day 1): rapidly and extensively distributed into tissues

IC50 (A431 (EGFR^WT)): 704 ± 92.5 nM
IC50 [1]: 6.56 ± 1.43 nM
IC50 (H3255 (EGFR^L858R)): 17.1 ± 0.55 nM
IC50 (PC-9 (EGFR^d746–750)): 15 ± 0.65 nM
SMILES: C=CC(=O)Nc1cc(Nc2nccc(-c3c4n(c5ccccc35)CCCC4)n2)c(OC)cc1N(C)CCNC [Imp3]
inhibitory effect on EGFR phosphorylation [3]: stronger inhibitory effects on EGFR phosphorylation compared to osimertinib
